Structures can show the parent of a compound that is named as a salt. Where two headings read alike, the source gives them in different places.
Tests used:
recombinant human 5-HT1A = molecular target: T1, recombinant human 5-HT1A (Homo sapiens, UniProt P08908); assay: Radioligand binding to serotonin receptor 5-HT1A ([3H] 8-OH-DPAT, CHO membranes); conditions: for inhibition at 10 µM: read-out: 5-HT1A % inhibition
T1 construct: expressed in transfected cells; host or cells: CHO
T1 sequence (P08908 1-422): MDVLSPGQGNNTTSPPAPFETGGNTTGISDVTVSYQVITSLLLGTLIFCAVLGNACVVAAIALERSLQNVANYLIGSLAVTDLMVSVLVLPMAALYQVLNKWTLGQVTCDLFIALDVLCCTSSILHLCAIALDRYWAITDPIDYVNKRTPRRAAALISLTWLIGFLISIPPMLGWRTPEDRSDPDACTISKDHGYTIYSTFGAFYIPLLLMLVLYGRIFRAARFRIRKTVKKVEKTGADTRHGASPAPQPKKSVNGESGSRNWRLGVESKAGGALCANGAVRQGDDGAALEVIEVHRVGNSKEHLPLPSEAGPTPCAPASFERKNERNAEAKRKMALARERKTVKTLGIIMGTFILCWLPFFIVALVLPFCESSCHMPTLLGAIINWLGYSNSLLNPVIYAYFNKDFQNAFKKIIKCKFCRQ
Excerpt: J Pharmacol Exp Ther. 306(1): 301-309, 2003]. […] Metergoline is used as positive control.

human 5-HT7 receptor = molecular target: T2, human 5-HT7 receptor (Homo sapiens, UniProt P34969); assay: Radioligand binding to serotonin receptor 5-HT7 ([3H] Lysergic acid diethylamide, CHO membranes)
T2 construct: expressed in transfected cells; host or cells: CHO
Excerpt: For this purpose sDNA of human 5-HT7 receptor is expressed in CHO cells as it was described in [Shen Y, Monsma FJ Jr, Metcalf MA, Jose PA, Hamblin MW, and Sibley DR. […] J. Biol. Chem. 1993, 268, 18200 - 18204]. […] J. Pharmacol. Exp. Ther. 1994, 268:1403-1410]. […] Methiothepin is used as positive control.

adrenergic receptor α1B = molecular target: T3, adrenergic receptor α1B (Rattus norvegicus, UniProt P15823); assay: Radioligand binding to adrenergic receptor α1B ([3H] Prazosin, rat liver membranes); conditions: for nH: Receptor α1B
T3 construct: membrane species from rat liver (rat of Wistar breed) are prepared; from tissue; host or cells: rat (Wistar) liver
T3 sequence (P15823 1-515): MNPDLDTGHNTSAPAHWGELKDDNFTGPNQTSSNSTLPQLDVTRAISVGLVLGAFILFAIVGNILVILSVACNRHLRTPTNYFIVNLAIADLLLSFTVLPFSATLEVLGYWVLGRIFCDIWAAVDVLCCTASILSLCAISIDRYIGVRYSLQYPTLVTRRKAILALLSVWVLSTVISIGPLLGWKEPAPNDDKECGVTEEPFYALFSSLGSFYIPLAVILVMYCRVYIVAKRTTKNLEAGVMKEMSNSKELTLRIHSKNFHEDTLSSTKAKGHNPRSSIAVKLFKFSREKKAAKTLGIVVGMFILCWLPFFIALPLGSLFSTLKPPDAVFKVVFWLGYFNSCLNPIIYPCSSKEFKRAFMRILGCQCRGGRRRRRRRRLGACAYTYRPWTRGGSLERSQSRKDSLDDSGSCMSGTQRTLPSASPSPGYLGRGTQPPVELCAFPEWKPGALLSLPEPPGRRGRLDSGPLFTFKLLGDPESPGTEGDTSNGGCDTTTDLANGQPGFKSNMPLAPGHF
Excerpt: Species heterogeneity of hepatic α1A-, α1B-, and α1C-subtypes. Biochem Biophys Res Commun. […] Prazosin is used as positive control.

[1] = molecular target: T4, recombinant human 5-HT6 receptor (Homo sapiens, UniProt P50406); assay: Radioligand binding to serotonin receptor 5-HT6 ([3H] Lysergic acid diethylamide, HeLa membranes)
T4 construct: expressed in transfected cells; host or cells: HeLa
Excerpt: Mol Pharmacol. 43:320-327, 1993]. […] Methiothepin is used as positive control.

human D4.2 receptor = molecular target: T5, human D4.2 receptor (Homo sapiens, UniProt P21917, DEL265-296); assay: Radioligand binding to dopamine receptor D4.2 ([3H] Spiperone, CHO-K1 membranes); conditions: read-out: Dopamine receptors, % inhibition D4.2
T5 construct: expressed in transfected cells; host or cells: CHO-K1
T5 sequence (P21917 with tags, fused parts or gaps DEL265-296): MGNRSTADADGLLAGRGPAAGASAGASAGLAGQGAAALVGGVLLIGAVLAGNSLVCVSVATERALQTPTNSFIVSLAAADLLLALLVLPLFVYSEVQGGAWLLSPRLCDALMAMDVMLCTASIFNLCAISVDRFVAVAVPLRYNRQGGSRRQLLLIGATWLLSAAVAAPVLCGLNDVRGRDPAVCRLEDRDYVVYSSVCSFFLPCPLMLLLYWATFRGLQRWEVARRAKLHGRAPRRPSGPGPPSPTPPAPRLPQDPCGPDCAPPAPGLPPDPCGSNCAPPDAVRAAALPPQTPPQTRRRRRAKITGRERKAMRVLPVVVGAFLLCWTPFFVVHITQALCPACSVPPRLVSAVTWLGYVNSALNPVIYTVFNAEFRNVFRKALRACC
Method: Screening of the disclosed compounds for potential ability to interact with dopamine receptor D4.2 is carried out by method of radioligand binding. […] From the cells transfected in this way membrane species are prepared by homogenization of these cells in glass homogenizer with the subsequent separation of plasmatic membranes from cell nuclei, mitochondrias and cell wreckages by differential centrifugation. […] After incubation samples are filtered in vacuo on glass-microfiber filters G/F (Millipor, USA), filters are washed three times with cold solution of medium and radioactivity is measured by scintillation counter MicroBeta 340 (Perkin Elmer, USA). Nonspecific binding which makes up 10% of the overall binding is determined by incubation of membrane species with radioligand in the presence of 10 µM of Haloperidol.
Spiperone is used as positive control. Tested compounds' binding to the receptor is determined by their ability to displace radioligand and expressed in percent of displacement (%I). Values of %I are calculated according to the following equation: %I = (TA-CA)/(TA-NA)*100, [formula] wherein: TA - is overall radioactivity in the presence of radioligand only, CA - is radioactivity in the presence of radioligand and tested compound and NA - is radioactivity in the presence of radioligand and Haloperidol (10 µM).

human H1 receptor = molecular target: T6, human H1 receptor (Homo sapiens, UniProt P35367); assay: Radioligand binding to histamine receptor H1 ([3H] Pyrilamine, CHO-K1 membranes); conditions: for nH: histamine H1 receptors
T6 construct: expressed in transfected cells; host or cells: CHO-K1
Excerpt: Biochem Biophys Res Comm. 197(3): 1601-1608, 1993]. […] Biochem Biophys Res Comm. 197(3): 1601-1608, 1993].
Pyrilamine is used as positive control.

human D2S receptor = molecular target: T7, human D2S receptor (Homo sapiens, UniProt P14416); assay: Radioligand binding to dopamine receptor D2S ([3H] Spiperone, CHO membranes)
T7 construct: expressed in transfected cells; host or cells: CHO
Excerpt: 7-C. […] For this purpose sDNA of human D2S receptor is expressed in CHO cells, as described in [Hayes G, Biden TJ, Selbie LA and Shine J, Structural subtypes of the dopamine D2 receptor are functionally distinct. […] Mol Endocrinol. […] Mol Endocrinol. […] Spiperone is used as positive control.

[2] = molecular target: T8, recombinant human 5-HT2C receptor (Homo sapiens, UniProt P28335); assay: Radioligand binding to serotonin receptor 5-HT2C ([3H] Mesulergine, CHO-K1 membranes); conditions: for nH: 5-HT2C
T8 construct: expressed in transfected cells; host or cells: CHO-K1
T8 sequence (P28335 33-458): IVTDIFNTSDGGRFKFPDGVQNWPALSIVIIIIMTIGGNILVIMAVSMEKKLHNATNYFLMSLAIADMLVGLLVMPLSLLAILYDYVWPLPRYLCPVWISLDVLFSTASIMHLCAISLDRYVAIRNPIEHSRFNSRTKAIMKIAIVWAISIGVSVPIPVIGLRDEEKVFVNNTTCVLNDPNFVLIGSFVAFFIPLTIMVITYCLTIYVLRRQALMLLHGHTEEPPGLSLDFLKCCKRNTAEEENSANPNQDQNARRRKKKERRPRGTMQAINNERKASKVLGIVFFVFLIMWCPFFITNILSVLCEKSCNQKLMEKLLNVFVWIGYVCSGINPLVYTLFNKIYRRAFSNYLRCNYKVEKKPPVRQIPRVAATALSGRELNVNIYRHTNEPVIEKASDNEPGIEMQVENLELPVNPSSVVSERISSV
Excerpt: J Neurochem. 69: 1449 - 1458, 1997]. […] SB242084 is used as positive control.

[3] = read-out: Histamine receptors, % inhibition H1, 10 µM ligand
[4] = read-out: Dopamine receptors, % inhibition D2S
[5] = read-out: α-Adrenoceptor, % inhibition α1B
[6] = last block of Table 11: receptor printed 5-HT6 in r18, cell blank in r19-r21

T7 sequence (P14416 1-414 isoform P14416-2): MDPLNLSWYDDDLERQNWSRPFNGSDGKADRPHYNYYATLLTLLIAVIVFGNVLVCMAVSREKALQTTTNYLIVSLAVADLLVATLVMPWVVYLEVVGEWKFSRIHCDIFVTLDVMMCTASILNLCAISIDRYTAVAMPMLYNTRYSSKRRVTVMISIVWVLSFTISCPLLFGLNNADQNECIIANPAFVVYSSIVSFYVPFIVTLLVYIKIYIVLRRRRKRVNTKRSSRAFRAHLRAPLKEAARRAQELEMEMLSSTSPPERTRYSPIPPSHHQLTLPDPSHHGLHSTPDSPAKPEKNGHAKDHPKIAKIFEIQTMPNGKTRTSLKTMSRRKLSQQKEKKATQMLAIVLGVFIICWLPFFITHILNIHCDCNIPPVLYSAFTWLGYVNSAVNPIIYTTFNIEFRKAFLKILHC
T2 sequence (P34969 whole entry): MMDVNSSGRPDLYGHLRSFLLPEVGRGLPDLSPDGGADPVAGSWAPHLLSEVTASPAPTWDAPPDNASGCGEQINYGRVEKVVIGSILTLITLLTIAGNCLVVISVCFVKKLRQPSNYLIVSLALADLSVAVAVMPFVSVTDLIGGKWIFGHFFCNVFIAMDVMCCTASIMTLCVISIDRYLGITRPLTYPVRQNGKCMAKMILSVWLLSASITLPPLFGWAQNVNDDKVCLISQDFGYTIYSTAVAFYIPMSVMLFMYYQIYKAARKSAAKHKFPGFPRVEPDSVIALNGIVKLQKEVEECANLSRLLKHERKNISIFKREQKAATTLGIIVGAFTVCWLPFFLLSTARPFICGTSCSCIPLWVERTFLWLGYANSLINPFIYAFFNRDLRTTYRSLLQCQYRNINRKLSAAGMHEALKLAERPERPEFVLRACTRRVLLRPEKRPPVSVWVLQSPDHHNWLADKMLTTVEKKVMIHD
T4 sequence (P50406 whole entry): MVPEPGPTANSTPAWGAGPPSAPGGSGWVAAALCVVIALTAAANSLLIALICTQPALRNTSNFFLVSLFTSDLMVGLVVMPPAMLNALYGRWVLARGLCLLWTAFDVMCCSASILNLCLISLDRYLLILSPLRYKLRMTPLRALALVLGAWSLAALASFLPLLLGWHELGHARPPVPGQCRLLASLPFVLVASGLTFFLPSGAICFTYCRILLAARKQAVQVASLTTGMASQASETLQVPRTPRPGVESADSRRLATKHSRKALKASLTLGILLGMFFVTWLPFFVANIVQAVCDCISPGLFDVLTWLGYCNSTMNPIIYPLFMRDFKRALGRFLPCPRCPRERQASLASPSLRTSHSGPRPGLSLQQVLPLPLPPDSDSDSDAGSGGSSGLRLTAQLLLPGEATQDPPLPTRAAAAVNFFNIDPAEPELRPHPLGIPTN
T6 sequence (P35367 whole entry): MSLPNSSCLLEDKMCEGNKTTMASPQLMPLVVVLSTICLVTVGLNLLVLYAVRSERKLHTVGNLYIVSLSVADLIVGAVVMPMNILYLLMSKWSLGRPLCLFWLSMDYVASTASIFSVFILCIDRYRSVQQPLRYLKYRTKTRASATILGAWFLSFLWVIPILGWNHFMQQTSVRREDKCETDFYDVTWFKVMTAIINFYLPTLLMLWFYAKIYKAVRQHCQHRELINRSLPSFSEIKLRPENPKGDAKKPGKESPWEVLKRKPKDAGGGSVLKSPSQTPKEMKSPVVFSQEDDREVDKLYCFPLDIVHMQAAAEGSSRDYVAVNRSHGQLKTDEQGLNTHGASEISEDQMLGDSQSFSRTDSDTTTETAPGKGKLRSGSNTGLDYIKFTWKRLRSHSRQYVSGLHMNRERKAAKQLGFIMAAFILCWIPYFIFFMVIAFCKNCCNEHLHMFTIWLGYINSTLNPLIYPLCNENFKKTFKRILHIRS

## Cc1ccc2c(c1)c1c(n2CCc2ccccn2)CCCN(C)C1 [1.2.2(2-2)]
Recombinant human 5-HT1A; 10 µM ligand
  5-HT1A % inhibition: -5%
Human 5-HT7 receptor; 10 µM ligand
  5-HT7 % inhibition: 74%
Adrenergic receptor α1B; 10 µM ligand
  α-Adrenoceptor, % inhibition α1B: 80%
[1]; 10 µM ligand
  5-HT6 % inhibition: 21%

## Cc1ccc2c(c1)[C@@H]1CN(C)CCC[C@@H]1N2CCc1ccc(C)nc1 (relative stereo) [1.6.1(2)·3HCl]
Human D4.2 receptor
  inhibition at 10 µM: -11%
Recombinant human 5-HT1A
  inhibition at 10 µM: -9%
Human 5-HT7 receptor; read-out: 5-HT7 % inhibition
  inhibition at 10 µM: 8%
Human H1 receptor; [3]
  inhibition at 10 µM: 102%
Human D2S receptor; [4]
  inhibition at 10 µM: 31%
[2]; read-out: 5-HT2C % inhibition
  inhibition at 10 µM: 4%
Adrenergic receptor α1B; [5]
  inhibition at 10 µM: 93%
[1]; read-out: 5-HT6 % inhibition
  inhibition at 1 µM: 76%
  inhibition at 10 µM: -10%

## Cc1ccc2c(c1)c1c(n2CCc2ccccc2)CCN(C)C1 [1.1.2(1-2)·HCl, 2,8-dimethyl-5-phenethyl-1,2,3,4-tetrahydro-1H-pyrido[4,3-b]indole hydrochloride]
Recombinant human 5-HT1A
  inhibition at 10 µM: 84%
Adrenergic receptor α1B; [5]
  inhibition at 10 µM: 101%

## Cc1ccc2c(c1)[C@@H]1CN(C)CCC[C@@H]1N2CCc1cccnc1 (relative stereo) [1.6.1(1)·3HCl]
Human D4.2 receptor
  inhibition at 10 µM: -6%
Human H1 receptor; [3]
  inhibition at 10 µM: 100%
Human D2S receptor; [4]
  inhibition at 10 µM: 42%
[2]; read-out: 5-HT2C % inhibition
  inhibition at 1 µM: 95%
Adrenergic receptor α1B; [5]
  inhibition at 10 µM: 94%
[1]; read-out: 5-HT6 % inhibition
  inhibition at 1 µM: 84%

## Cc1ccc(CCn2c3c(c4cc(C)ccc42)CN(C)CC3)cc1 [1.1.2(1-3), 2,8-dimethyl-5-[2-(4-methylphenyl)-ethyl]-1,2,3,4-tetrahydro-1H-pyrido[4,3-b]indole]
Recombinant human 5-HT1A; 10 µM ligand
  5-HT1A % inhibition: 68%
Human 5-HT7 receptor; 10 µM ligand
  5-HT7 % inhibition: 98%
[2]; 10 µM ligand
  5-HT2C % inhibition: 98%
Adrenergic receptor α1B
  nH: 1,13

## CN1CCc2c(c3ccccc3n2Cc2ccccc2)C1 [1.9(1)·1/2NDSA, bis-(5-benzyl-2-methyl-2,3,4,5-tetrahydro-1H-pyrido[4,3-b]indole) naphthalene-1,5-disulfonate]
Human H1 receptor; 10 µM ligand
  Histamine receptors, % inhibition H1: 105%
Human H1 receptor
  nH: 0.789
Human D2S receptor; Receptor D2S
  nH: 0.879
Human D2S receptor; [4]
  inhibition at 10 µM: 51%
[2]
  nH: 0.987
Adrenergic receptor α1B
  nH: 0,956
Adrenergic receptor α1B; [5]
  inhibition at 3 µM: 62%
[1]; 5-HT6
  nH: 1.07
[1]; read-out: 5-HT6 % inhibition
  inhibition at 0.3 µM: 78%

## Cc1ccc2c(c1)c1c(n2CCc2ccc(C)nc2)CCN(C)C1 [1.1.2(4-2)·2HCl]
Human D4.2 receptor; 10 µM ligand
  inhibition at 10 µM: 54%
Recombinant human 5-HT1A; 10 µM ligand
  inhibition at 10 µM: 9%
Human 5-HT7 receptor; 10 µM ligand, read-out: 5-HT7 % inhibition
  inhibition at 10 µM: 96%
Human H1 receptor; 10 µM ligand, read-out: Histamine receptors, % inhibition H1
  inhibition at 10 µM: 100%
Human H1 receptor
  nH: 1.01
Human D2S receptor; 10 µM ligand
  Dopamine receptors, % inhibition D2S: 80%
Human D2S receptor; Receptor D2S
  Ki: 629 nM
  nH: 0.724
[2]; 10 µM ligand, read-out: 5-HT2C % inhibition
  inhibition at 10 µM: 76%
Adrenergic receptor α1B; 10 µM ligand, read-out: α-Adrenoceptor, % inhibition α1B
  inhibition at 10 µM: 101%
Adrenergic receptor α1B
  nH: 1.54
[1]; 10 µM ligand, read-out: 5-HT6 % inhibition
  inhibition at 10 µM: 90%

## CN1CCc2c(c3ccccc3n2Cc2ccccc2)C1.Cl [1.9(1)·HCl, 5-benzyl-2-methyl-2,3,4,5-tetrahydro-1H-pyrido[4,3-b]indole hydrochloride]
Human 5-HT7 receptor; read-out: 5-HT7 % inhibition
  inhibition at 0.3 µM: 76%
  inhibition at 10 µM: 91%
Human H1 receptor; [3]
  inhibition at 10 µM: 97%
[2]
  nH: 1.21
[2]; read-out: 5-HT2C % inhibition
  inhibition at 0.1 µM: 79%
  inhibition at 10 µM: 97%
Adrenergic receptor α1B; [5]
  inhibition at 10 µM: 70%
[1]
  IC50: 110 nM
  Ki: 63.2 nM
[1]; 5-HT6
  nH: 1.04
[1]; [6]
  nH: 1.32
[1]; read-out: 5-HT6 % inhibition
  inhibition at 10 µM: 71%

## Cc1ccc2c(c1)c1c(n2CCc2ccccn2)CCN(C)C1 [1.1.2(2-3)·2HCl]
Human D4.2 receptor
  inhibition at 100 µM: 71%
Human D2S receptor; [4]
  inhibition at 3 µM: 77%
[2]; read-out: 5-HT2C % inhibition
  inhibition at 1 µM: 96%
Adrenergic receptor α1B; [5]
  inhibition at 10 µM: 98%
[1]
  IC50: 2.14 nM
  Ki: 1.23 nM
[1]; 5-HT6
  nH: 0.744
[1]; [6]
  nH: 0.655
